Measurements taken from ChEMBL document CHEMBL3112468, “δ-Thiolactones as prodrugs of thiol-based glutamate carboxypeptidase II (GCPII) inhibitors” (J Med Chem, 2014).
pIC50: −log10 of the molar value. Calls of active or inactive are those of the source. The rule behind the calls is not given here.

What was measured:
Liver microsome [1] = assay: Prodrug conversion in rat liver microsomes at 10 uM after 1.5 hrs by LC/MS/MS analysis; format: ADME
[2] = target: Glutamate carboxypeptidase 2 (Homo sapiens, UniProt Q04609); assay: Inhibition of human recombinant GCP2 using N-acetyl-L-aspartyl[3H]-L-glutamate as substrate
Chain of Glutamate carboxypeptidase 2 (Q04609 whole entry): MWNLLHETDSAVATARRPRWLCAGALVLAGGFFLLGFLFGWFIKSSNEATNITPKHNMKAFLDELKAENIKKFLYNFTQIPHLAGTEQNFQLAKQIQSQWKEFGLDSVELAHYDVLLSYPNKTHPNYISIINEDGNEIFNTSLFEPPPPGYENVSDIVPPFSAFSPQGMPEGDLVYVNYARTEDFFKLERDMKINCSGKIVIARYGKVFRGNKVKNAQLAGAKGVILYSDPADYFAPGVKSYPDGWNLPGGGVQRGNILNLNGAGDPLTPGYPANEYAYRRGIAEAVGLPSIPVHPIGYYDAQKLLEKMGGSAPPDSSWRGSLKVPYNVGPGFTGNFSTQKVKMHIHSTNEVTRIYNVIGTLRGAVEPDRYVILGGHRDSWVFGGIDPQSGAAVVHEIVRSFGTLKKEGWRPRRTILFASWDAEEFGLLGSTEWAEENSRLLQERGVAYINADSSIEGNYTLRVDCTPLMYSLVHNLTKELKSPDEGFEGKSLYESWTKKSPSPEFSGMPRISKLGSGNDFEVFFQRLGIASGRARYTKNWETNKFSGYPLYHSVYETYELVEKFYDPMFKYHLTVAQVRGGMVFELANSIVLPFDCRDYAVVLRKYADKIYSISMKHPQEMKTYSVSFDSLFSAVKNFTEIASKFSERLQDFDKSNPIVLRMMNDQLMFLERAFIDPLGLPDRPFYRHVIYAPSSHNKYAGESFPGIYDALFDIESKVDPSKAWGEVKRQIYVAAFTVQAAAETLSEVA

[3] = Prodrug conversion in simulated gastric fluid at pH 1.2 after 48 hrs by HPLC analysis; format: ADME; conditions: simulated gi fluid, pH 1.2, 48 h
Liver microsome [4] = assay: Prodrug conversion in rat liver microsomes assessed as 2-MPPA formation at 10 uM by LC/MS/MS analysis; format: ADME; conditions: TDE = time-dependent effect
Plasma = assay: Prodrug conversion in rat plasma assessed as 2-MPPA formation at 10 mg/kg, po after 0.25 to 3 hrs; format: ADME, organism-based; set-up: dose 10 mg/kg, route oral; conditions: in vivo
Rattus norvegicus = assay: Antinociceptive effect in rat chronic constriction injury model of neuropathic pain assessed as reduction of CCI-induced thermal hyperalgesia at 10 mg/kg/day, po after 11 to 18 days relative to vehicle-treated control; format: functional, organism-based

Row | Stability (Liver microsome [1]) | pIC50 [2] | Stability [3] | Activity (Liver microsome [4]) | Drug metabolism (Plasma) | Compound | Activity (Rattus norvegicus)
1 | Stable | 4.70 | Stable | – | – | O=C(O)c1cccc(-c2cccc3c2C(=O)SCC3)c1 | –
2 | – | – | – | tde | – | O=C(O)CCC(CCCS)C(=O)O (stereo not drawn) | –
3 | – | 5.70 | Stable | – | Active | O=C(O)CCC1CCCSC1=O (racemic) | Active
